In brackets after ≈: the same amount, converted by molar mass.
Assays:
Format in all cases: cell-based
E. coli MP-4 = assay: MIC determination by CLSI broth dilution, E. coli MP-4; settings: Escherichia coli, MP4, CLSI broth dilution; strain MP-4
P. aeruginosa MP-3 = assay: MIC determination by CLSI broth dilution, P. aeruginosa MP-3; settings: Pseudomonas aeruginosa, MP3, strain MP-3
K. pneumoniae MP-546 = assay: MIC determination by CLSI broth dilution, K. pneumoniae MP-546; settings: Klebsiella pneumoniae, MP546, CLSI broth dilution; strain MP-546
A. baumannii MP-15 = assay: MIC determination by CLSI broth dilution, A. baumannii MP-15; settings: Acinetobacter baumannii, MP15, strain MP-15, read-out: MIC A. baumanii MP-15
S. aureus MP-12 = assay: microbe, parasite or virus in culture; settings: Staphylococcus aureus, MP12, read-out: MIC S. aureus MP-12
K. pneumoniae MP-648 = assay: MIC determination by CLSI broth dilution, K. pneumoniae MP-648; settings: Klebsiella pneumoniae, MP648, CLSI broth dilution; strain MP-648

| SMILES | MIC (E. coli MP-4) | MIC (P. aeruginosa MP-3) | MIC (K. pneumoniae MP-546) | MIC (A. baumannii MP-15) | MIC (S. aureus MP-12) | MIC (K. pneumoniae MP-648) |
| --- | --- | --- | --- | --- | --- | --- |
| CO[C@]1(C)C[C@@H](C)CN(C)[C@@H](C(=O)N2CCNCC2)[C@H](C)OC(=O)C(C)(C)C(=O)[C@H](C)[C@H]1O[C@@H]1O[C@H](C)C[C@H](N(C)C)[C@H]1O [Compound 136, (2S,3R,6R,8R,9R,10R)-9-(((2S,3R,4S,6R)-4-(dimethylamino)-3-hydroxy-6-methyltetrahydro-2H-pyran-2-yl)oxy)-8-methoxy-2,4,6,8,10,12,12-heptamethyl-3-(piperazine-1-carbonyl)-1-oxa-4-azacyclotridecane-11,13-dione] | > 32 µg/mL | > 32 µg/mL | > 32 µg/mL | > 32 µg/mL | > 32 µg/mL |  |
| CO[C@]1(C)C[C@@H](C)CN(C)[C@@H](CN2CCN(S(=O)(=O)c3ccc(C)cc3)CC2)[C@H](C)OC(=O)C(C)(C)C(=O)[C@H](C)[C@H]1O[C@@H]1O[C@H](C)C[C@H](N(C)C)[C@H]1O [Compound 139, (2S,3S,6R,8R,9R,10R)-9-(((2S,3R,4S,6R)-4-(dimethylamino)-3-hydroxy-6-methyltetrahydro-2H-pyran-2-yl)oxy)-8-methoxy-2,4,6,8,10,12,12-heptamethyl-3-((4-tosylpiperazin-1-yl)methyl)-1-oxa-4-azacyclotridecane-11,13-dione] | > 32 µg/mL | > 32 µg/mL | > 32 µg/mL | > 32 µg/mL | 4 to 32 µg/mL (≈ 5.21 to 41.7 µM) |  |
| CO[C@]1(C)C[C@@H](C)CN(C)[C@@H](CN2CCN(S(=O)(=O)N(C)C)CC2)[C@H](C)OC(=O)C(C)(C)C(=O)[C@H](C)[C@H]1O[C@@H]1O[C@H](C)C[C@H](N(C)C)[C@H]1O [Compound 142, 4-(((2S,3S,6R,8R,9R,10R)-9-(((2S,3R,4S,6R)-4-(dimethylamino)-3-hydroxy-6-methyltetrahydro-2H-pyran-2-yl)oxy)-8-methoxy-2,4,6,8,10,12,12-heptamethyl-11,13-dioxo-1-oxa-4-azacyclotridecan-3-yl)methyl)-N,N-dimethylpiperazine-1-sulfonamide] | > 32 µg/mL | > 32 µg/mL | > 32 µg/mL | > 32 µg/mL | 4 to 32 µg/mL (≈ 5.56 to 44.4 µM) |  |
| CO[C@]1(C)C[C@@H](C)CN(C)[C@H](/C=C/CN2Cc3cccnc3C2)COC(=O)C(C)(C)C(=O)[C@H](C)[C@H]1O[C@@H]1O[C@H](C)C[C@H](N(C)C)[C@H]1O [Compound 152] | < 4 µg/mL | > 32 µg/mL |  | > 32 µg/mL | 4 to 32 µg/mL (≈ 6.07 to 48.6 µM) | 4 to 32 µg/mL (≈ 6.07 to 48.6 µM) |
| CO[C@]1(C)C[C@@H](C)CN(C)[C@H](/C=C/CN2CCCC2)COC(=O)C(C)(C)C(=O)[C@H](C)[C@H]1O[C@@H]1O[C@H](C)C[C@H](N(C)C)[C@H]1O [Compound 153] | < 4 µg/mL | > 32 µg/mL |  | > 32 µg/mL | 4 to 32 µg/mL (≈ 6.56 to 52.5 µM) | < 4 µg/mL |
| CCN1CCN(C[C@H]2COC(=O)C(C)(C)C(=O)[C@H](C)[C@@H](O[C@@H]3O[C@H](C)C[C@H](N(C)C)[C@H]3O)[C@](C)(OC)C[C@@H](C)CN2C)CC1 [Compound 155, (3S,6R,8R,9R,10R)-9-(((2S,3R,4S,6R)-4-(dimethylamino)-3-hydroxy-6-methyltetrahydro-2H-pyran-2-yl)oxy)-3-((4-ethylpiperazin-1-yl)methyl)-8-methoxy-4,6,8,10,12,12-hexamethyl-1-oxa-4-azacyclotridecane-11,13-dione] | < 4 µg/mL | > 32 µg/mL |  | > 32 µg/mL | 4 to 32 µg/mL (≈ 6.38 to 51 µM) | 4 to 32 µg/mL (≈ 6.38 to 51 µM) |
| CO[C@]1(C)C[C@@H](C)CN(C)[C@@H](CN2CCN(C(C)C)CC2)COC(=O)C(C)(C)C(=O)[C@H](C)[C@H]1O[C@@H]1O[C@H](C)C[C@H](N(C)C)[C@H]1O [Compound 156, (3S,6R,8R,9R,10R)-9-(((2S,3R,4S,6R)-4-(dimethylamino)-3-hydroxy-6-methyltetrahydro-2H-pyran-2-yl)oxy)-3-((4-isopropylpiperazin-1-yl)methyl)-8-methoxy-4,6,8,10,12,12-hexamethyl-1-oxa-4-azacyclotridecane-11,13-dione] | < 4 µg/mL | > 32 µg/mL |  | > 32 µg/mL | 4 to 32 µg/mL (≈ 6.24 to 49.9 µM) | 4 to 32 µg/mL (≈ 6.24 to 49.9 µM) |
| CCN1C[C@H](C)C[C@@](C)(OC)[C@H](O[C@@H]2O[C@H](C)C[C@H](N(C)C)[C@H]2O)[C@@H](C)C(=O)C(C)(C)C(=O)OC[C@@H]1CN1CCN(C)CC1 [Compound 157, (3S,6R,8R,9R,10R)-9-(((2S,3R,4S,6R)-4-(dimethylamino)-3-hydroxy-6-methyltetrahydro-2H-pyran-2-yl)oxy)-4-ethyl-8-methoxy-6,8,10,12,12-pentamethyl-3-((4-methylpiperazin-1-yl)methyl)-1-oxa-4-azacyclotridecane-11,13-dione] | < 4 µg/mL | > 32 µg/mL |  | > 32 µg/mL | 4 to 32 µg/mL (≈ 6.38 to 51 µM) | 4 to 32 µg/mL (≈ 6.38 to 51 µM) |
| CCN1CCN(C[C@H]2COC(=O)C(C)(C)C(=O)[C@H](C)[C@@H](O[C@@H]3O[C@H](C)C[C@H](N(C)C)[C@H]3O)[C@](C)(OC)C[C@@H](C)CN2CC)CC1 [Compound 158, (3S,6R,8R,9R,10R)-9-(((2S,3R,4S,6R)-4-(Dimethylamino)-3-hydroxy-6-methyltetrahydro-2H-pyran-2-yl)oxy)-4-ethyl-3-((4-ethylpiperazin-1-yl)methyl)-8-methoxy-6,8,10,12,12-pentamethyl-1-oxa-4-azacyclotridecane-11,13-dione] | < 4 µg/mL | > 32 µg/mL |  | > 32 µg/mL | 4 to 32 µg/mL (≈ 6.24 to 49.9 µM) | 4 to 32 µg/mL (≈ 6.24 to 49.9 µM) |
| CCN1C[C@H](C)C[C@@](C)(OC)[C@H](O[C@@H]2O[C@H](C)C[C@H](N(C)C)[C@H]2O)[C@@H](C)C(=O)C(C)(C)C(=O)OC[C@@H]1CN1CCN(C(C)C)CC1 [Compound 159] | < 4 µg/mL | > 32 µg/mL |  | > 32 µg/mL | 4 to 32 µg/mL (≈ 6.11 to 48.9 µM) | 4 to 32 µg/mL (≈ 6.11 to 48.9 µM) |
| CCN1C[C@H](C)C[C@@](C)(OC)[C@H](O[C@@H]2O[C@H](C)C[C@H](N(C)C)[C@H]2O)[C@@H](C)C(=O)C(C)(C)C(=O)OC[C@H]1CC1CCN(CCO)CC1 [Compound 169, (3R,6R,8R,9R,10R)-9-(((2S,3R,4S,6R)-4-(Dimethylamino)-3-hydroxy-6-methyltetrahydro-2H-pyran-2-yl)oxy)-4-ethyl-3-((1-(2-hydroxyethyl)piperidin-4-yl)methyl)-8-methoxy-6,8,10,12,12-pentamethyl-1-oxa-4-azacyclotridecane-11,13-dione] | < 4 µg/mL | > 32 µg/mL |  | > 32 µg/mL | 4 to 32 µg/mL (≈ 6.1 to 48.8 µM) | 4 to 32 µg/mL (≈ 6.1 to 48.8 µM) |
| CCN1C[C@H](C)C[C@@](C)(OC)[C@H](O[C@@H]2O[C@H](C)C[C@H](N(C)C)[C@H]2O)[C@@H](C)C(=O)C(C)(C)C(=O)OC[C@H]1CC1CCN(CCOC)CC1 [Compound 170] | < 4 µg/mL | > 32 µg/mL |  | > 32 µg/mL | 4 to 32 µg/mL (≈ 5.97 to 47.8 µM) | < 4 µg/mL |
| CO[C@]1(C)C[C@@H](C)CN(C)[C@H](CC2CCN(CCO)CC2)COC(=O)C(C)(C)C(=O)[C@H](C)[C@H]1O[C@@H]1O[C@H](C)C[C@H](N(C)C)[C@H]1O [Compound 178] | < 4 µg/mL | > 32 µg/mL |  | > 32 µg/mL | > 32 µg/mL | < 4 µg/mL |
| CCN1C[C@H](C)C[C@@](C)(OC)[C@H](O[C@@H]2O[C@H](C)C[C@H](N(C)C)[C@H]2O)[C@@H](C)C(=O)C(C)(C)C(=O)OC[C@@H]1CCCN1CCN(C)CC1 [Compound 180] | < 4 µg/mL | > 32 µg/mL |  | > 32 µg/mL | > 32 µg/mL | > 32 µg/mL |
| CCN1C[C@H](C)C[C@@](C)(OC)[C@H](O[C@@H]2O[C@H](C)C[C@H](N(C)C)[C@H]2O)[C@@H](C)C(=O)C(C)(C)C(=O)OC[C@@H]1CCCN1CCN(c2ccncc2)CC1 [Compound 181] | < 4 µg/mL | > 32 µg/mL |  | > 32 µg/mL | > 32 µg/mL | > 32 µg/mL |
| CCN1C[C@H](C)C[C@@](C)(OC)[C@H](O[C@@H]2O[C@H](C)C[C@H](N(C)C)[C@H]2O)[C@@H](C)C(=O)C(C)(C)C(=O)OC[C@H]1C=C1CCN(C2Cc3ccccc3C2)CC1 [Compound 191] | < 4 µg/mL | > 32 µg/mL |  | 4 to 32 µg/mL (≈ 5.51 to 44.1 µM) | < 4 µg/mL | < 4 µg/mL |
| CCN1C[C@H](C)C[C@@](C)(OC)[C@H](O[C@@H]2O[C@H](C)C[C@H](N(C)C)[C@H]2O)[C@@H](C)C(=O)C(C)(C)C(=O)OC[C@H]1C=C1CCN(Cc2ccccc2)CC1 [Compound 192] | < 4 µg/mL | > 32 µg/mL |  | 4 to 32 µg/mL (≈ 5.71 to 45.7 µM) | < 4 µg/mL | 4 to 32 µg/mL (≈ 5.71 to 45.7 µM) |
| CCN1C[C@H](C)C[C@@](C)(OC)[C@H](O[C@@H]2O[C@H](C)C[C@H](N(C)C)[C@H]2O)[C@@H](C)C(=O)C(C)(C)C(=O)OC[C@H]1[C@H](O)CCN(C)CC(F)(F)F [Compound 193, (3S,6R,8R,9R,10R)-9-(((2S,3R,4S,6R)-4-(dimethylamino)-3-hydroxy-6-methyltetrahydro-2H-pyran-2-yl)oxy)-4-ethyl-3-((R)-1-hydroxy-3-(methyl(2,2,2-trifluoroethyl)amino)propyl)-8-methoxy-6,8,10,12,12-pentamethyl-1-oxa-4-azacyclotridecane-11,13-dione] | 4 to 32 µg/mL (≈ 5.85 to 46.8 µM) | > 32 µg/mL |  | > 32 µg/mL | > 32 µg/mL | > 32 µg/mL |
| CCN1C[C@H](C)C[C@@](C)(OC)[C@H](O[C@@H]2O[C@H](C)C[C@H](N(C)C)[C@H]2O)[C@@H](C)C(=O)C(C)(C)C(=O)OC[C@H]1[C@H](O)CCN(C)Cc1ccccc1 [Compound 194] | < 4 µg/mL | > 32 µg/mL |  | 4 to 32 µg/mL (≈ 5.78 to 46.2 µM) | 4 to 32 µg/mL (≈ 5.78 to 46.2 µM) | < 4 µg/mL |
| CO[C@]1(C)C[C@@H](C)CN(C)[C@H](/C=C/CN(C)Cc2ccc(F)cc2)COC(=O)C(C)(C)C(=O)[C@H](C)[C@H]1O[C@@H]1O[C@H](C)C[C@H](N(C)C)[C@H]1O [Compound 195] | < 4 µg/mL | > 32 µg/mL |  | 4 to 32 µg/mL (≈ 5.9 to 47.2 µM) | 4 to 32 µg/mL (≈ 5.9 to 47.2 µM) | 4 to 32 µg/mL (≈ 5.9 to 47.2 µM) |
